From PMC5116089, “Sulfheme formation during homocysteine S-oxygenation by catalase in cancers and neurodegenerative diseases” (Nature Communications, 2016)
Blank lines part the entries; values can stand above or below the compound they belong to.

Key:
[1] = target: T1, Bovine liver catalase (Bos taurus, UniProt P00432); assay: Time course of catalase inactivation by HCys (activity test); type: biochemical; conditions: CAT + 2 mM HCys, 1 mM DTPA, pH 7.4, with the additive named (DMPO 100 mM, dimedone 4 mM, SOD 40 U); n=2±s.d.
T1 construct: Bovine liver catalase was also purchased from Sigma-Aldrich; purchased Sigma-Aldrich; host or cells: bovine liver
T1 sequence (P00432 2-527 limits assumed): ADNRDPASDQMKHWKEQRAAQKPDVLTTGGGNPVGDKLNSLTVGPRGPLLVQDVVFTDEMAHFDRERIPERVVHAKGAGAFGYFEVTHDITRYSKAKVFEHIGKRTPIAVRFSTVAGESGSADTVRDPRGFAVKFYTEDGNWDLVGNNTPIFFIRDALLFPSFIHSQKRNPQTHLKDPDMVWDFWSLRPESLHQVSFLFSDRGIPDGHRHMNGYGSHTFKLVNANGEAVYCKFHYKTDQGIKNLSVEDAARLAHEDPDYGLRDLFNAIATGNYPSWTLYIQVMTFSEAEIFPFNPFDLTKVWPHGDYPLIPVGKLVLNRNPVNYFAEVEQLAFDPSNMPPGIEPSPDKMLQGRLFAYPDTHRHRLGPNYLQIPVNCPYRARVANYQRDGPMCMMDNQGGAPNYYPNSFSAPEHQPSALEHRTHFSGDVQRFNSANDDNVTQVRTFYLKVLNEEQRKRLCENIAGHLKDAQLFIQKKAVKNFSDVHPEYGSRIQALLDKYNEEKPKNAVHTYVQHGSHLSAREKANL
Description: CAT activity was measured on an Uvikon 941 spectrophotometer equipped with a temperature controlled water bath (±1 °C) by following the disappearance of H2O2 at 240 nm over 30–120 s at 25 °C. Catalase activity was calculated based on the rate of decomposition of hydrogen peroxide, which is proportional to the reduction of the absorbance at 240 nm. Experiments were carried out in a 3 ml quartz cuvette containing 11.7 mM H2O2 in 50 mM KPi, pH 7.4±1 mM DTPA and the reaction was initiated by adding 0.3–0.6 pmoles of CAT. The effect of biological thiols on the activity of CAT under physiological conditions was determined from a solution of CAT (30–60 nM) preincubated at 25 °C for at least 120 min as a function thiol concentration (0–40 mM for HCys and Cys, 0–100 mM for GSH) in 50 mM KPi, pH 7.4, 1 mM DTPA. Control experiments (biological thiols alone) were also performed in parallel. In each case, 10 μl of the reaction mixture (biological thiols±CAT) was added to the cuvette containing the H2O2 solution to initiate the reaction. Similarly, the effect of biological thiols on the activity of CAT under pathological conditions was determined from a solution of CAT (30–60 nM) containing a 2.124±0.386 molar excess of iron that was preincubated with various concentrations of thiols (0–1 mM) for at least 120 min at 25 °C in 50 mM KP at pH 7.4. The relative half inhibitory concentration (IC50) values were obtained by plotting the relative activity of CAT (A, in per cent) as a function of the concentration of thiol-compounds (RSH) and by fitting the data with the following four parameter logistic equation: A=Amin+(Amax−Amin)/(1+([RSH]/IC50)^n), where Amax is the maximal activity of CAT (constrained at 100%), Amin is the minimum activity achieved at saturating concentration of RSH and n is the Hillslope that characterizes the slope of the curve at its midpoint. The inactivation rate (kinact, min^−1) was extracted from the time course of the inactivation of CAT bioactivity using a fixed concentration of HCys. Accordingly, a solution of CAT (3.5–5 μM) was incubated with 2 mM L-HCys in 50 mM KPi, pH 7.4, 1 mM DTPA. Aliquots (10 μl) were taken at intervals (0–480 min), diluted 1:50 in 50 mM KPi, pH 7.4, 1 mM DTPA and assayed for CAT activity as described above. […] The effect of NaSH on the consumption of H2O2 in cell lysates was determined from a solution of cell lysates (0.5–3 mg ml^−1) incubated on ice with various concentrations of NaSH (0–200 μM). […]

[2] = target: T1, Bovine liver catalase; assay: Comparative kinetic studies by ultraviolet-visible spectroscopy (compound II and Fe(II) sulfonium formation); type: biochemical; conditions: CAT + 2 mM HCys, 1 mM DTPA, pH 7.4, with the additive named (dimedone 4 mM, BCN 0.1 mM, SOD 40 U)
Description: Ultraviolet–visible spectra were recorded on a Cary 300 Scan or an Uvikon 941 spectrophotometer equipped with a temperature equilibrating water bath (±1 °C). Spectral changes over time were recorded when CAT was incubated with L-HCys (0.2 or 2 mM), L-Cys (0.2, 2 or 9 mM) or GSH (1 or 30 mM) at 25 °C in a 1 ml quartz cuvette containing a solution of CAT (2.7–5.9 μM) in 50 mM KPi, pH 7.4±1 mM DTPA. Due to half-site reactivity of biological thiols with CAT, the data were recorded versus a blank containing half the concentrations of CAT used in the experiments, that is, a solution of 1.35–2.95 μM CAT in 50 mM KPi at pH 7.4±1 mM DTPA. Reactions were initiated by addition of the thiol-containing compounds. Comparative kinetic studies were performed by incubating CAT ([…] in the experiment, 1.35–1.5 μM in the blank) with 2 mM L-HCys in 50 mM KPi, pH 7.4, 1 mM DTPA with or without […], 5,5-dimethyl-1,3-cyclohexanedione (dimedone, 4 mM), BCN (0.1 mM) or SOD, 40 U). All the experiments were performed at least in duplicate.

[3] = target: T1, Bovine liver catalase; assay: Catalase activity (H2O2 disappearance at 240 nm) as a function of thiol concentration; type: biochemical; conditions: DTPA 0-10 mM, CAT 40 nM pre-incubated 120 min, 25 °C
Description: CAT activity was measured on an Uvikon 941 spectrophotometer equipped with a temperature controlled water bath (±1 °C) by following the disappearance of H2O2 at 240 nm over 30–120 s at 25 °C. Catalase activity was calculated based on the rate of decomposition of hydrogen peroxide, which is proportional to the reduction of the absorbance at 240 nm. Experiments were carried out in a 3 ml quartz cuvette containing 11.7 mM H2O2 in 50 mM KPi, pH 7.4±1 mM DTPA and the reaction was initiated by adding 0.3–0.6 pmoles of CAT. The effect of biological thiols on the activity of CAT under physiological conditions was determined from a solution of CAT (30–60 nM) preincubated at 25 °C for at least 120 min as a function thiol concentration (0–40 mM for HCys and Cys, 0–100 mM for GSH) in 50 mM KPi, pH 7.4, 1 mM DTPA. Control experiments (biological thiols alone) were also performed in parallel. In each case, 10 μl of the reaction mixture (biological thiols±CAT) was added to the cuvette containing the H2O2 solution to initiate the reaction. Similarly, the effect of biological thiols on the activity of CAT under pathological conditions was determined from a solution of CAT (30–60 nM) containing a 2.124±0.386 molar excess of iron that was preincubated with various concentrations of thiols (0–1 mM) for at least 120 min at 25 °C in 50 mM KP at pH 7.4. The relative half inhibitory concentration (IC50) values were obtained by plotting the relative activity of CAT (A, in per cent) as a function of the concentration of thiol-compounds (RSH) and by fitting the data with the following four parameter logistic equation: A=Amin+(Amax−Amin)/(1+([RSH]/IC50)^n), where Amax is the maximal activity of CAT (constrained at 100%), Amin is the minimum activity achieved at saturating concentration of RSH and n is the Hillslope that characterizes the slope of the curve at its midpoint. The inactivation rate (kinact, min^−1) was extracted from the time course of the inactivation of CAT bioactivity using a fixed concentration of HCys. Accordingly, a solution of CAT (3.5–5 μM) was incubated with 2 mM L-HCys in 50 mM KPi, pH 7.4, 1 mM DTPA. Aliquots (10 μl) were taken at intervals (0–480 min), diluted 1:50 in 50 mM KPi, pH 7.4, 1 mM DTPA and assayed for CAT activity as described above. Similar experiments were performed in the presence of DMPO, 5,5-dimethyl-1,3-cyclohexanedione (dimedone) or SOD at a final concentration of 100 mM, 4 mM or 40 U, respectively. kinact values were obtained by plotting the relative activity of CAT (A, in per cent) as a function of the incubation time and the data were fitted with an exponential decay function: A=A0+ΔA × e^−kinact × t, with A0 and ΔA (A0+ΔA=100%) the residual activity and the percentage of CAT inhibition when t→∞, respectively. The effect of NaSH on the consumption of H2O2 in cell lysates was determined from a solution of cell lysates (0.5–3 mg ml^−1) incubated on ice with various concentrations of NaSH (0–200 μM). The disappearance of H2O2 was then followed at 240 nm for 2–5 min at 25 °C after the addition of 20–25 μl of the reaction mixture in a 3 ml cuvette containing 11.7 mM H2O2 in 50 mM KPi, pH 7.4. The relative half inhibitory concentration (IC50) values for NaSH were obtained by plotting the relative rate of disappearance of H2O2 (ΔA240 nm/min) as a function of the concentration of NaSH and by fitting the data with an hyperbolic decay equation. All the experiments were performed at least in triplicate.

[4] = tested on: M17 human neuroblastoma cells; assay: Relative specific activity of catalase (SpCAT) in cells treated with rotenone; type: cell-based; conditions: BE2-M17 cells, 100 nM rotenone, 48 h
Description: Hek293T cells (n=2) were plated and transfected the following day with pcDNA (empty vector), Htt-N171-82Q (Htt) or Alpha-synuclein-A53T (α-Syn) plasmids (20 μg) with the calcium phosphate method. BE2-M17 cells (n=2) were plated and treated the following day with 100 nM rotenone dissolved in DMSO or DMSO alone. Hek293T and BE2-M17 cells were collected 48 h after transfection or treatment with DMSO±rotenone, respectively.
The relative specific activity (activity and quantity) of catalase in the cell lysates was determined using the kit ab118184 from Abcam (Cambridge, MA). The measurements were performed in duplicate as per the manufacturer's protocol. Briefly, catalase in cell lysates (0.1–0.2 mg cell lysates per assay) was immunocaptured within the wells of the microplate. An assay buffer, which contains H2O2 that reacts with a substrate to generate a luminescent product, was added to each well. […] Then, the quantity of catalase was measured by adding to each well an anti-catalase primary detector antibody. […] A blue colour (absorbance at 600 nm) developed in proportion to the amount of catalase bound. Luminescence and absorbance measurements were performed on an EnSpire Multilabel Reader 2300 (PerkinElmer). […] The protocol above was then followed to determine activity measurement and catalase quantification.

[5] = tested on: crypt and surface epithelial cells; assay: Relative specific activity of catalase (SpCAT) in rodent model of DSS-induced colitis; type: in vivo, mice; conditions: DSS 3.5% in drinking water for 5 days, cells isolated day 7
Description: Seven-week-old male C57BL/6J mice (n=6; Envigo, Gannat, France) were acclimated for 1 week with free access to standard mouse chow and tap water. Each mouse was maintained in a cage under controlled conditions of temperature (23 °C), humidity (55±10%) and light (12:12 h light–dark cycle). Colitis was induced by the addition of DSS (3.5% (wt/vol), 36,000–50,000 MW, MP Biomedicals Illkirch-Graffenstaden, France) to the drinking water for 5 days (n=3). Healthy control animals (n=3) received fresh tap water, only. Two days after DSS arrest (day 7), mice were killed. […]
The relative specific activity (activity and quantity) of catalase in the cell lysates was determined using the kit ab118184 from Abcam (Cambridge, MA). […] Then, the quantity of catalase was measured by adding to each well an anti-catalase primary detector antibody. […] A blue colour (absorbance at 600 nm) developed in proportion to the amount of catalase bound. Luminescence and absorbance measurements were performed on an EnSpire Multilabel Reader 2300 (PerkinElmer). […] The protocol above was then followed to determine activity measurement and catalase quantification.

Compound: CC1(C)CCC=[N+]1[O-] [DMPO, 5,5-Dimethyl-1-Pyrroline-N-Oxide]
kinact [1]: 0.00015 s⁻¹
Ultraviolet–visible spectroscopy kobs(6) (CAT–Fe(IV)=O formation) [2]: 0.010 ± 0.002 min⁻¹

Compound: C=C(C)[C@H]1Cc2c(ccc3c2O[C@@H]2COc4cc(OC)c(OC)cc4[C@@H]2C3=O)O1 [rotenone]
SpCAT versus control [4]: inhibited

Compound: Dextran Sulfate Sodium [DSS]
SpCAT versus untreated mice [5]: not modified

Compound: bicyclo[6.1.0]nonyne [BCN]
Ultraviolet–visible spectroscopy kobs(6) (CAT–Fe(IV)=O formation) [2]: 0.018 ± 0.002 min⁻¹

Continued, in another order:

effect on the activity of CAT [3]: does not interfere
Compound: O=C(O)CN(CCN(CC(=O)O)CC(=O)O)CCN(CC(=O)O)CC(=O)O [DTPA, diethylene triamine pentaacetic acid]

kinact [1]: 0.0003 s⁻¹
Ultraviolet–visible spectroscopy kobs(6) (CAT–Fe(IV)=O formation) [2]: ^†0.019±0.003 min^−1
Compound: CC1(C)CC(=O)CC(=O)C1 [Dimedone, 5,5-dimethyl-1,3-cyclohexanedione]

Activity test kinact [1]: 0.018 ± 0.001 min⁻¹
Compound: superoxide dismutase [SOD]
Ultraviolet–visible spectroscopy kobs(6) (CAT–Fe(IV)=O formation) [2]: 0.020 ± 0.002 min⁻¹
